Calls of active or inactive are those of the source.
Key:
[1] = NIH-3T3 fibroblast cytotoxicity, dose response, cytotoxicity control, cell-based, fluorescence, Alamar Blue, secondary assay (AID 2327); assay type: functional;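 also: NIH-3T3 mouse fibroblasts cultured with fluconazole at 8 µg/mL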
[2] = fluconazole-exposed Candida albicans growth modulators – fluorescence, retest, confirmation (AID 2467); assay type: functional, cell-based
[3] = biological target: T1, Serine/threonine-protein phosphatase (Candida dubliniensis (strain CD36 / CBS 7987 / NCPF 3949 / NRRLY-17841) (Yeast), UniProt B9W6M3); assay: blockers of CaCl2-induced CDRE-lacZ signaling – S. cerevisiae, luminescence, secondary, dose response (AID 2388); assay type: functional, cell-based;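 also: yeast reporter cells carrying a calcineurin-responsive lacZ construct stimulated with calcium chloride; luminescent beta-galactosidase reporter signal in whole cells rather than isolated phosphatase activity; potency for inhibition where a drop in reporter signal means calcineurin blockade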
T1 sequence (B9W6M3 whole entry): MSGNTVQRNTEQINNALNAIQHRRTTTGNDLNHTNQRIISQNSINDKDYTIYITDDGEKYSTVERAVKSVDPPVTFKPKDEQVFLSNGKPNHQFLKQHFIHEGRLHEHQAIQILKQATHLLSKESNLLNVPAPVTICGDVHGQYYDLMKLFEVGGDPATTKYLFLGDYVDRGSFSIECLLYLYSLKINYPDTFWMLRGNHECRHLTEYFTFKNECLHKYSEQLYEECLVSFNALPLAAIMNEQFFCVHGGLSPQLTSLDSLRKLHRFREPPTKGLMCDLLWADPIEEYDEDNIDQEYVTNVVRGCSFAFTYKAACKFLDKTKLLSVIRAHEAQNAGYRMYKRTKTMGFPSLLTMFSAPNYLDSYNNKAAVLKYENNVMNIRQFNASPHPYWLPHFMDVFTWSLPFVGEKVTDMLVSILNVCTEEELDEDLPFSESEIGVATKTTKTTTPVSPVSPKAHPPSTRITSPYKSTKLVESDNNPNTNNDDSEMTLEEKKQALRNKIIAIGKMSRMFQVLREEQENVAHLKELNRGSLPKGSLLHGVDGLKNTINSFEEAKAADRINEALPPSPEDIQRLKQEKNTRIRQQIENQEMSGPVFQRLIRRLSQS

[4] = biological target: ATP-dependent molecular chaperone HSP82 (Candida albicans (strain WO-1) (Yeast), UniProt C4YTQ8); assay: steroid-induced GRE reporter decrease in yeast – S. cerevisiae, luminescence, Hsp90 inhibitor project, dose response (AID 2400); assay type: functional, cell-based;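 also: beta-galactosidase luminescence from glucocorticoid response element reporter as proxy for Hsp90 function; inhibitor potency where signal loss means Hsp90 inhibition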
Chain of ATP-dependent molecular chaperone HSP82 (C4YTQ8 whole entry): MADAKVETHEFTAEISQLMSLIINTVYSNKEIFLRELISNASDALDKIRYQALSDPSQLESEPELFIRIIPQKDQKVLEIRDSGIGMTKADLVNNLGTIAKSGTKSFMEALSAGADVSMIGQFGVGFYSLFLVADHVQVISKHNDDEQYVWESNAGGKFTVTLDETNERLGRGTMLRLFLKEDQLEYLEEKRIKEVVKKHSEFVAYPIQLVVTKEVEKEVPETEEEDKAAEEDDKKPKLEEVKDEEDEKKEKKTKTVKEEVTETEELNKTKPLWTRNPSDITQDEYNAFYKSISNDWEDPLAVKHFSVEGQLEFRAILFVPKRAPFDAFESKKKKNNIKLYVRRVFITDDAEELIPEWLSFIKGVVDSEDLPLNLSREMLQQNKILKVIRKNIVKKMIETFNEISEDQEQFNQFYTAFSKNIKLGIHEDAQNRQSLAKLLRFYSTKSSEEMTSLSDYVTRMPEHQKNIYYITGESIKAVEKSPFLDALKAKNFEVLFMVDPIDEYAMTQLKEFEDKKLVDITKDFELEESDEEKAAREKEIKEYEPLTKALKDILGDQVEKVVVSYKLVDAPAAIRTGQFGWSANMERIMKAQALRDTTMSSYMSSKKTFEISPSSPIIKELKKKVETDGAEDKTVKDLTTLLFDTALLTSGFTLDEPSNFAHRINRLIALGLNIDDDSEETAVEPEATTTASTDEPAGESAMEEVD

[5] = biological target: Eukaryotic translation initiation factor 4E (Mus musculus, UniProt P63073); assay: blockers of eIF4G binding by eIF4E – biochemical, TR-FRET, dose response (AID 855); assay type: functional;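 also: potency for disrupting eIF4E binding to eIF4GI seen as loss of FRET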
Chain of Eukaryotic translation initiation factor 4E (P63073 whole entry): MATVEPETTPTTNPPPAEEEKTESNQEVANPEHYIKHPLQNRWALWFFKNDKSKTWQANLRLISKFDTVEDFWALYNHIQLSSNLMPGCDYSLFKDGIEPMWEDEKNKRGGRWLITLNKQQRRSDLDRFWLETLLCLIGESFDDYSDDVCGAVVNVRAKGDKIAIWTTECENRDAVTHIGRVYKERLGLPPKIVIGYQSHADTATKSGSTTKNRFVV

[6] = tested on: Vero; assay: cells; assay type: functional, cell-based; conditions: Chlorocebus sabaeus
[7] = tested on: Vero; assay: cells; assay type: functional; conditions: Chlorocebus sabaeus
[8] = biological target: Cytochrome P450 2C9 (Homo sapiens, UniProt P11712)
Chain of Cytochrome P450 2C9 (P11712 whole entry): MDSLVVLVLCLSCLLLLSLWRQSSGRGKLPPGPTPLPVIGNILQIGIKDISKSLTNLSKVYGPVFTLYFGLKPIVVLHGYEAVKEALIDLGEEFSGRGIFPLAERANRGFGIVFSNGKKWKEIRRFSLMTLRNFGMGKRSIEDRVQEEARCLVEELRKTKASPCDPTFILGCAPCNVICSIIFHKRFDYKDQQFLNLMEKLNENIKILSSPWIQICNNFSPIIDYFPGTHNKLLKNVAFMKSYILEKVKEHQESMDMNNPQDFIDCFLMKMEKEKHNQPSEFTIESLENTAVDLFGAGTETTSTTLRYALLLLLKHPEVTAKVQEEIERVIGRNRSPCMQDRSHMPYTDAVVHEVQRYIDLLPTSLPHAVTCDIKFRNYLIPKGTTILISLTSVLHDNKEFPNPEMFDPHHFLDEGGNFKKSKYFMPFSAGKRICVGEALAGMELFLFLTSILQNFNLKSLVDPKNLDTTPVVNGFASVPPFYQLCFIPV

[9] = tested on: Streptococcus sp. 'group A'; assay: Streptococcus pyogenes SK(-)GAS viability under kanamycin – luminescence, BacTiterGlo, confirmation, counter-screen for streptokinase expression inhibitor project, dose response (AID 1900); assay type: functional, organism-based
[10] = tested on: Streptococcus; assay: GAS UMAA2166 growth inhibition – luminescence, BacTiterGlo, counter-screen for streptokinase expression inhibitor project, dose response (AID 1915); assay type: functional, organism-based;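 also: potency for reduction of bacterial viability or growth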
[11] = biological target: T2, Probable nicotinate-nucleotide adenylyltransferase (Staphylococcus aureus (strain N315), UniProt P65502); assay type: functional, Staphylococcus aureus subsp. aureus N315;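 as to IC50 Mean: confirmatory dose-response retesting of NadD inhibitor hits first found in an ultra-high-throughput screen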
T2 sequence (P65502 whole entry): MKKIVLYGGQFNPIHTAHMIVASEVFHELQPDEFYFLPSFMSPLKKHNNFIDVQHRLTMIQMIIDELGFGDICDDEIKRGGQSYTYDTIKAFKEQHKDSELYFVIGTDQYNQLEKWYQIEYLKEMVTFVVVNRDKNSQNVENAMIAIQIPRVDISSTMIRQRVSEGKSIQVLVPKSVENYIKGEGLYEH

[12] = biological target: T2, Probable nicotinate-nucleotide adenylyltransferase; assay type: functional, Staphylococcus aureus subsp. aureus N315; conditions: read-out: IC50_Mean
[13] = activation of miR-122 Renilla sensor silencing – cell-based, Huh7 psiCHECK-miR122, Renilla luciferase, cherry-picked, dose response (AID 651956); assay type: functional;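 also: huh7 hepatoma cells stably carrying a psiCHECK-2 miR-122 sensor plasmid; renilla luciferase signal reporting endogenous miR-122 activity after 48 h compound exposure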
[14] = reduction of Shn3 3'UTR-driven luciferase in osteoblasts – cell-based, Clone20 osteoblasts, firefly luciferase, cherry-picked, dose response (AID 624132); assay type: functional;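 also: firefly luciferase luminescence from reporter carrying the Shn3 3'UTR in osteoblasts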
[15] = non-specific 3'UTR reporter inhibition in Clone20-Shn3RL – cell-based, Renilla luciferase, cherry-picked, counter-screen for Shn3 inhibitor project, dose response (AID 624133); assay type: functional
[16] = Fluorescence-based cell-based high throughput dose response assay for inhibitors of the interaction of nucleotide-binding oligomerization domain containing 2 (NOD2) and the receptor-interacting serine-threonine kinase 2 (RIPK2).; assay type: functional; conditions: Homo sapiens
[17] = biological target: Beta Lactamase (Pseudomonas aeruginosa, UniProt Q932Y6); assay: BLA reporter interference, concentration series – BLA reporter cells, FRET fluorescence, artefact control for NOD2-RIPK2 interaction inhibitor project, dose response (AID 651552); assay type: functional, cell-based
Chain of Beta Lactamase (Q932Y6 whole entry): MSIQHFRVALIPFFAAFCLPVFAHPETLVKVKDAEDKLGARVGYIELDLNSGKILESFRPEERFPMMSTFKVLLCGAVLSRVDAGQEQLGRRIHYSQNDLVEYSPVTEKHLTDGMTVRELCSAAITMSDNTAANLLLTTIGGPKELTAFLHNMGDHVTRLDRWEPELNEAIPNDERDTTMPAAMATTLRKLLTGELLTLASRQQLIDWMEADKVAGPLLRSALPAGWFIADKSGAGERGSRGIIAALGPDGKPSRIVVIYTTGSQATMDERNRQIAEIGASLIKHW

[18] = reduced cellular PGC1a acetyl-lysine signal – cell-based, cherry-picked samples, dose response (AID 720514); assay type: functional;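 also: potency may reflect raised or lowered acetylation signal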

With CN(C)S(=O)(=O)Oc1cccc(C(=O)Nc2cccc(Cl)c2)c1 the EC50 [1] was > 150 µM (inactive), the EC50 [2] was 2.39 µM (active) and the EC50 [3] was > 180 µM (inactive). For the same compound, the EC50 [4] was 24.7 µM (active).
For COc1ccccc1/C=C/C(=O)c1c(O)nc(C)c2c1CCCC2, the IC50 [5] was 50 µM (inactive), the IC50 [6] was 20.3 µM (active) and the CC50 [7] was > 25 µM (active). The AC50 [8] was “inconclusive”.
In the case of COc1ccc(C2c3ccc4ccccc4c3Oc3ncn(CCN4CCOCC4)c(=N)c32)cc1 (configuration not stated), the EC50 [1] is reported as > 160 µM (inactive), the EC50 [2] is reported as 1.9 µM (active) and the EC50 [3] is reported as > 180 µM (inactive). The EC50 [4] was > 160 µM (inactive).
With N=C1SC(c2ccccc2)C(=O)N1c1ncc(Cc2ccccc2Cl)s1 (configuration not stated) the EC50 [9] was 0.249 µM (active), the EC50 [10] was 3.47 µM (active) and the IC50 [11] was 4.35 µM (active). For the same compound, the IC50 [12] was 16 µM (active).
In the case of COc1ccc(S(=O)(=O)Nc2cc(C)cc(C)n2)c2ccccc12, the AC50 [13] is reported as 13.4 µM (active).
With COc1ccc(CC2NCC(O)C2OC(C)=O)cc1 (configuration not stated) the AC50 [14] was < 0.26 µM (active), the AC50 [15] was 1.09 µM (active) and the IC50 [16] was 49.7 µM (inactive). The IC50 [17] was 49.7 µM (inactive) and the AC50 [18] was 0.308 µM (active).

— ChEMBL document CHEMBL1201862, “PubChem BioAssay data set” (2004)
